Laboratory results published in US20240067651A1 (Biohaven Therapeutics Ltd., priority 2019, published 2024).

Legend:
[1] = Stability in Simulated Intestinal Fluid (SIF); assay type: in vitro ADME; parameters: key: % parent compound remaining relative to 0-minute sample
How it was run: (§1)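 Compound at 2 μg/mL final was incubated at 37 °C with shaking in SGF with pepsin (pH 1.2) or SIF with pancreatin (pH 6.8), sampled from 0 to 60 min. After acetonitrile precipitation, LC-MS/MS gave % parent remaining vs 0 min; half-life came from ln(% remaining) vs time.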

[2] = Caco-2 Permeability Assay; assay type: in vitro ADME, human; details: human
How it was run: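 Caco-2 monolayers cultured 21 days (TEER >600 […]); test article at 10 μM in HBSS/HEPES pH 7.4 transport medium, dosed apical or basolateral, ±Pgp inhibitor. Incubated 90 min at 37 °C; both compartments quantified by LC-MS/MS. Papp (A→B, B→A), efflux ratio and % recovery calculated.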

Plasma Stability = assay type: in vitro ADME, human
How it was run: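 Compounds incubated at 1 μM in fresh human plasma for 1 hour at 37° C, then protein-precipitated with acetonitrile/formic acid containing internal standard. Remaining parent measured by LC-MS/MS in triplicate, expressed as percent of control remaining.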

[3] = Stability in Simulated Gastric Fluid (SGF); assay type: in vitro ADME; parameters: key: % parent compound remaining relative to 0-minute sample
How it was run: as §1

[4] = % remaining at 1 h in simulated intestinal fluid
[5] = Caco-2, pH 7.4, Caco-2 monolayer
[6] = % remaining at 1 h in human plasma
[7] = % remaining at 1 h in simulated gastric fluid
[8] = % remaining at 1 h, SIF with pancreatin pH 6.8, 2 μg/mL, 37° C.
[9] = Caco-2, pH 7.4, donor 10 μM, 90 minutes, 37° C., direction not given
[10] = % remaining at 1 h, human plasma, 1 μM, 37° C.
[11] = % remaining at 1 h, SGF with pepsin pH 1.2, 2 μg/mL, 37° C.
[12] = % @ 1 h (remaining) in simulated intestinal fluid
[13] = % @ 1 h (remaining) in human plasma
[14] = % @ 1 h (remaining) in simulated gastric fluid

SIF [1, 4] | Papp at 90 min, 10 µM [2, 5] [×10⁻⁶ cm/s] | human Plasma stability (Plasma Stability; [6]) [% remaining] | SGF [3, 7] | SIF [1, 8] | Papp at 90 min, 10 µM [2, 9] [×10⁻⁶ cm/s] | human Plasma stability (Plasma Stability; [10]) | SGF [3, 11] | Structure (SMILES) | SIF [1, 12] [% @ 1 h] | human Plasma stability (Plasma Stability; [13]) [% @ 1 h] | SGF [3, 14] [% @ 1 h]
22% remaining | 19.3 | 50 | 85% remaining |  |  |  |  | CC(C)OCCn1c(=S)n(COC(=O)OCCOCCNC(=O)OC(C)(C)C)c(=O)c2c1ccn2COC(=O)OCCOCCNC(=O)OC(C)(C)C [Example 122] |  |  | 
67% remaining | 13.5 | 2 | 100% |  |  |  |  | CC(C)OCCn1c(=S)[nH]c(=O)c2c1ccn2COC(=O)CCC(=O)OC(C)(C)C [Example 126] |  |  | 
6% remaining | 7.79 | 1 | 80% remaining |  |  |  |  | CC(C)OCCn1c(=S)[nH]c(=O)c2c1ccn2COC(=O)C1CN(C(=O)OC(C)(C)C)C1 [Example 127] |  |  | 
64% remaining | 17.6 | 4 | 61% remaining |  |  |  |  | CC(C)OCCn1c(=S)[nH]c(=O)c2c1ccn2COC(=O)[C@H]1CCN(C(=O)OC(C)(C)C)C1 [Example 130] |  |  | 
97% remaining | < 0.198 | 7 | 82% remaining |  |  |  |  | CC(C)OCCn1c(SCOC(=O)C2CCNCC2)nc(=O)c2c1ccn2COC(=O)CCC(=O)O [Example 133] |  |  | 
 |  |  |  | 82% | 3 | 21% | 62% | CC(C)OCCn1c(=S)n(COC(=O)C(C)(C)C)c(=O)c2c1ccn2COC(=O)C(C)(C)C [Example 143, 2,2-Dimethyl-propionic acid 5-(2,2-dimethyl-propionyloxymethyl)-1-(2-isopropoxy-ethyl)-4-oxo-2-thioxo-1,2,4,5-tetrahydro-pyrrolo[3,2-d]pyrimidin-3-ylmethyl ester] |  |  | 
 | 2.79 |  |  |  |  |  |  | CCCC(=O)OCSc1nc(=O)c2c(ccn2COC(=O)CCC)n1CCOC(C)C [Example 155] | 0 | 1 | 73
 | 6.55 |  |  |  |  |  |  | CCC(=O)OCn1ccc2c1c(=O)[nH]c(=S)n2CCOC(C)C [Example 156] | 1 | 0 | 99
 | 8.42 |  |  |  |  |  |  | CC(=O)OCn1ccc2c1c(=O)[nH]c(=S)n2CCOC(C)C [Example 159] | 83 | 0 | 79
 | 31.3 |  |  |  |  |  |  | CC(C)CN(C)C(=O)OCSc1nc(=O)c2c(ccn2COC(=O)N(C)CC(C)C)n1CCOC(C)C [Example 161] | 80 | 99 | 80
 | 4.2 |  |  |  |  |  |  | CCN(C)C(=O)OCSc1nc(=O)c2[nH]ccc2n1CCOC(C)C [Example 163] | 96 | 90 | 99
 | 2.56 |  |  |  |  |  |  | CC(C)OCCn1c(SCOC(=O)N(C)C)nc(=O)c2c1ccn2COC(=O)N(C)C [Example 165, trifluoroacetic acid [2-({[(dimethylcarbamoyl)oxy]methyl}sulfanyl)-4-oxo-1-[2-(propan-2-yloxy)ethyl]-1H,4H,5H-pyrrolo[3,2-d]pyrimidin-5-yl]methyl N,N-dimethylcarbamate] | 99 | 97 | 84

More lines, now with the values behind:

Structure (SMILES) | SIF [1, 4] | Papp at 90 min, 10 µM [2, 5] [×10⁻⁶ cm/s] | human Plasma stability (Plasma Stability; [6]) [% remaining] | SGF [3, 7] | SIF [1, 8] | Papp at 90 min, 10 µM [2, 9] [×10⁻⁶ cm/s] | human Plasma stability (Plasma Stability; [10]) | SGF [3, 11] | SIF [1, 12] [% @ 1 h] | human Plasma stability (Plasma Stability; [13]) [% @ 1 h] | SGF [3, 14] [% @ 1 h]
CC(C)OCCn1c(SCOC(=O)OCCOCCNC(=O)OC(C)(C)C)nc(=O)c2c1ccn2COC(=O)OCCOCCNC(=O)OC(C)(C)C [Example 121] | 56% remaining | 1.19 | 34 | 69% remaining |  |  |  |  |  |  | 
CC(C)OCCn1c(=S)[nH]c(=O)c2c1ccn2COC(=O)OCCOCCN.O=C(O)C(F)(F)F [Example 123] | 1% remaining at | 2.44 | 65 | 97% remaining |  |  |  |  |  |  | 
CC(C)OCCn1c(=S)[nH]c(=O)c2c1ccn2COC(=O)OC1CN(C(=O)OC(C)(C)C)C1 [Example 125] | 17% remaining | 24.9 | 3 | 85% remaining |  |  |  |  |  |  | 
CC(C)OCCn1c(SCOC(=O)C2CCN(C(=O)OC(C)(C)C)CC2)nc(=O)c2c1ccn2COC(=O)CCC(=O)OC(C)(C)C [Example 131] | 75% remaining | 6.58 | 1 | 99% remaining |  |  |  |  |  |  | 
CC(C)OCCn1c(=S)n(COC(=O)C2CCN(C(=O)OC(C)(C)C)CC2)c(=O)c2c1ccn2COC(=O)CCC(=O)OC(C)(C)C [Example 132] | 71% remaining | 4.29 | 11 | 9% remaining |  |  |  |  |  |  | 
CC(C)OCCn1c(=S)[nH]c(=O)c2c1ccn2COC(=O)C[C@H](NC(=O)CCCCCCCCCCC(=O)O)C(=O)O [Example 142, 11-{[(1S)-1-carboxy-3-oxo-3-({4-oxo-1-[2-(propan-2-yloxy)ethyl]-2-sulfanylidene-1H,2H,3H,4H,5H-pyrrolo[3,2-d]pyrimidin-5-yl}methoxy)propyl]carbamoyl}undecanoic acid] |  |  |  |  | 97% remaining | < 0.19 | 97% remaining | 100% remaining |  |  | 
CCCC(=O)OCn1ccc2c1c(=O)[nH]c(=S)n2CCOC(C)C [Example 154] |  | 4.03 |  |  |  |  |  |  | 0 | 9 | 82
CC(C)OCCn1c(=S)[nH]c(=O)c2c1ccn2COC(=O)c1ccccc1.O=C(O)C(F)(F)F [Example 157] |  | 7.3 |  |  |  |  |  |  | 20 | 0 | 96
CCCCN(C)C(=O)OCSc1nc(=O)c2[nH]ccc2n1CCOC(C)C.O=C(O)C(F)(F)F [Example 160] |  | 15.8 |  |  |  |  |  |  | 95 | 99 | 92
CC(C)OCCn1c(SCOC(=O)N(C)C)nc(=O)c2[nH]ccc21.O=C(O)C(F)(F)F [Example 164] |  | 4.2 |  |  |  |  |  |  | 99 | 98 | 100
CC(C)OCCn1c(SCOC(=O)N(C)C(C)C)nc(=O)c2[nH]ccc21.O=C(O)C(F)(F)F [Example 166] |  | 7.08 |  |  |  |  |  |  | 99 | 100 | 99
CC(C)OCCn1c(SCOC(=O)N(C)C(C)(C)C)nc(=O)c2[nH]ccc21.O=C(O)C(F)(F)F [Example 167] |  | 17.8 |  |  |  |  |  |  | 99 | 98 | 99
CC(C)OCCn1c(SCOC(=O)N(C)C(C)(C)C)nc(=O)c2c1ccn2COC(=O)N(C)C(C)(C)C.O=C(O)C(F)(F)F [Example 168] |  | 28.1 |  |  |  |  |  |  | 94 | 88 | 100
CCN(C)C(=O)OCn1ccc2c1c(=O)nc(SCOC(=O)N(C)C(C)C)n2CCOC(C)C.O=C(O)C(F)(F)F [Example 170] |  | 14.1 |  |  |  |  |  |  | 92 | 99 | 99
CC(C)OCCn1c(SCOC(=O)N(C)C(C)C)nc(=O)c2c1ccn2COC(=O)N(C)C(C)C.O=C(O)C(F)(F)F [Example 171] |  | 21.7 |  |  |  |  |  |  | 89 | 97 | 100
CC(C)CN(C)C(=O)OCSc1nc(=O)c2[nH]ccc2n1CCOC(C)C [Example 172] |  | 23.7 |  |  |  |  |  |  | 95 | 98 | 100
CC(C)OCCn1c(SCOC(=O)N(C)Cc2ccccc2)nc(=O)c2[nH]ccc21.O=C(O)C(F)(F)F [Example 173] |  | 20.5 |  |  |  |  |  |  | 99 | 99 | 95
CC(C)OCCn1c(SCOC(=O)N(C)CCc2ccccc2)nc(=O)c2[nH]ccc21.O=C(O)C(F)(F)F [Example 175] |  | 30.9 |  |  |  |  |  |  | 92 | 95 | 99
CC(C)OCCn1c(SCOC(=O)N(C)CCc2ccccc2)nc(=O)c2c1ccn2COC(=O)N(C)CCc1ccccc1.O=C(O)C(F)(F)F [Example 176] |  | 40.4 |  |  |  |  |  |  | 100 | 99 | 86
C=CCN(C)C(=O)OCSc1nc(=O)c2[nH]ccc2n1CCOC(C)C.O=C(O)C(F)(F)F [Example 177] |  | 15.2 |  |  |  |  |  |  | 89 | 99 | 99
